Results as given in patent US5646173A, “Tricyclic pyrrole derivatives useful as 5-HT selective agents” (Hoffmann-La Roche Inc., priority 1993, dated 1997).
Where a name gives a salt, the structure may show the parent alone. Read-outs that look alike come from different tables or passages of the source.

Legend:
[1] = biological target: T1, 5HT2C receptor (Rattus norvegicus, UniProt P08909); assay: [3H]-5-HT binding assay (Method II b); design: expressed in transfected cells; host or cells: clonal 5-HT1C cell line
T1 sequence (P08909 33-460): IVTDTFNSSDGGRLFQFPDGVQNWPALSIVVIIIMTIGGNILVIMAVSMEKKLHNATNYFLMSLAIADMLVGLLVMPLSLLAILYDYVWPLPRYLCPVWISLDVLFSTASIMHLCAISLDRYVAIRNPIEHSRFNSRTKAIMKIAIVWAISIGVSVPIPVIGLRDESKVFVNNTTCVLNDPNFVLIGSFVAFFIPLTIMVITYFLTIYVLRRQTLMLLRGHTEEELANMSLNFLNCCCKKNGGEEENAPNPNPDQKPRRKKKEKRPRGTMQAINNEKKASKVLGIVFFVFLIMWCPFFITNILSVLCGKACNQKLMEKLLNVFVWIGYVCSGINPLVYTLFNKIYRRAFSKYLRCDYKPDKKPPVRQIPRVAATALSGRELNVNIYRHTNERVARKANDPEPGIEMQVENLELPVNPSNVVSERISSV
From the text: b) For the binding to the 5HT2C receptor in accordance with the [3H]-5-HT binding assay according to the method of S. J. Peroutka et al., Brain Research 584, 191-196 (1992).
(§1) The pki values (pki =-log^10 Ki) of the test substances are given. […] [L] is the concentration of ligand and the KD value is the dissociation constant of the ligand.

[2] = biological target: T2, 5HT2A receptor (Homo sapiens, UniProt P28223); assay: [3H]-DOB binding assay (Method II c)
T2 construct: expressed in transfected cells; host or cells: transfected mammalian cells (inferred from the cited method)
From the text: c) For the binding to the 5HT2A receptor in accordance with the [3H]-DOB binding assay according to the method of T. Branchek et al., Molecular Pharmacology 38, 604-609 (1990).
as §1

[3] = biological target: T3, human-5HT1A receptors (Homo sapiens, UniProt P08908); assay: [3H]-5-HT displacement on recombinant human 5HT1A receptors expressed in 3T3 cells of mice (Method II a); format: binding
T3 construct: expressed in transfected cells; host or cells: mouse 3T3 cells
T3 sequence (P08908 1-422): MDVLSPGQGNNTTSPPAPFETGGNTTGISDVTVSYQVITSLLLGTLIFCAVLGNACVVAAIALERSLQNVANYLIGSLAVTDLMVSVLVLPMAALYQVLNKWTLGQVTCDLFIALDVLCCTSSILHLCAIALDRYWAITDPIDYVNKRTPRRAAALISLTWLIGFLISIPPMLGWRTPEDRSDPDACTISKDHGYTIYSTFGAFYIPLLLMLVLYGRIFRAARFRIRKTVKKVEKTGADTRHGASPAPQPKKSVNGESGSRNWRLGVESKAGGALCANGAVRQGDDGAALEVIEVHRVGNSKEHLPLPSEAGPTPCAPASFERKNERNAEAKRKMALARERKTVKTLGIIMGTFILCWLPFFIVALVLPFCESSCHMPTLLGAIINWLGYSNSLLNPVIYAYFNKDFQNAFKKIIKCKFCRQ
From the text: [L] is the concentration of ligand and the KD value is the dissociation constant of the ligand.

[4] = biological target: T4, 5HT2A receptor (Rattus norvegicus, UniProt P14842); assay: biochemical; format: binding
T4 construct: from tissue; host or cells: rat frontal cortex membranes (inferred from the cited method)
Protocol: (§2) The binding of the compounds of formula I in accordance with the invention to serotonin receptors was determined in vitro by standard methods. The preparations were investigated in accordance with the assays given hereinafter:
c) For the binding to the 5HT2A receptor in accordance with the ^3 H-ketanserine binding assay according to the method of J. E. Leysen, Molecular Pharmacology 21, 301-304 (1981).

[5] = biological target: T5, 5HT2C receptor (Sus scrofa, UniProt K7GSR7); assay: 3H-mesulergine binding assay (Method I b)
T5 construct: from tissue
T5 sequence (K7GSR7 1-457): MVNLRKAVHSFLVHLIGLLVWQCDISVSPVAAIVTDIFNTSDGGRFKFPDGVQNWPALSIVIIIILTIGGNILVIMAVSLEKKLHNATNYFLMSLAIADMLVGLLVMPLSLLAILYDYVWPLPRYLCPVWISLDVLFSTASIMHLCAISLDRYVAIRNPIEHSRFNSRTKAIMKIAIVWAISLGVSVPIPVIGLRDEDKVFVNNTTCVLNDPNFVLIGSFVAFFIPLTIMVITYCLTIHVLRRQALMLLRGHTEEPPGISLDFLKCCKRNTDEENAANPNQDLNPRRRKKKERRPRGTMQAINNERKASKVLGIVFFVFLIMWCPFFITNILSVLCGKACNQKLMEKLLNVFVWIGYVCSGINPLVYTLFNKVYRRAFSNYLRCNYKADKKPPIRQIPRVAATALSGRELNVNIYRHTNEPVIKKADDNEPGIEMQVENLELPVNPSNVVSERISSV
Protocol: as §2
b) For the binding to the 5HT2C receptor in accordance with the ^3 H-mesulergine binding assay according to the method of A. Pazos et al., Europ. J. Pharmacol. 106, 539-546 or. D. Hoyer, Receptor Research 8, 59-81 (1988).

[6] = biological target: 5HT1A receptor; assay: 3H-8-OH-DPAT binding assay (Method I a); settings: read-out: IC50, test method a
Protocol: The binding of the compounds of formula I in accordance with the invention to serotonin receptors was determined in vitro by standard methods. The preparations were investigated in accordance with the assays given hereinafter: […]

[7] = 5HT2C, [3H]-5-HT, Method II, read-out: pki, test method b (converted)
[8] = 5HT2C, 3H-mesulergine, Method I, read-out: IC50, test method b

T2 sequence (P28223 whole entry): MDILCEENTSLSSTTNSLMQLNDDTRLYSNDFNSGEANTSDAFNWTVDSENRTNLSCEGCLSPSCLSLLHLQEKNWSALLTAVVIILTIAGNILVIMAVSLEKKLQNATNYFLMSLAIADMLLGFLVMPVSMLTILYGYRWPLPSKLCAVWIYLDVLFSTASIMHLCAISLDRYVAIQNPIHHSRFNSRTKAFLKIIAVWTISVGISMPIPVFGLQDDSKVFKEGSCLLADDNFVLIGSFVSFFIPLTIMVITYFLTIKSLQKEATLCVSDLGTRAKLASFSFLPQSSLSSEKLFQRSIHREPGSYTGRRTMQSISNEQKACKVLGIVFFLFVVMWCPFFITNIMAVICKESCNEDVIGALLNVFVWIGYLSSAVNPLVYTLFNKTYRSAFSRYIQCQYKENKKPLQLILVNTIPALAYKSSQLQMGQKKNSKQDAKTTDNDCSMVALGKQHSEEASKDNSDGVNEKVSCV
T4 sequence (P14842 whole entry): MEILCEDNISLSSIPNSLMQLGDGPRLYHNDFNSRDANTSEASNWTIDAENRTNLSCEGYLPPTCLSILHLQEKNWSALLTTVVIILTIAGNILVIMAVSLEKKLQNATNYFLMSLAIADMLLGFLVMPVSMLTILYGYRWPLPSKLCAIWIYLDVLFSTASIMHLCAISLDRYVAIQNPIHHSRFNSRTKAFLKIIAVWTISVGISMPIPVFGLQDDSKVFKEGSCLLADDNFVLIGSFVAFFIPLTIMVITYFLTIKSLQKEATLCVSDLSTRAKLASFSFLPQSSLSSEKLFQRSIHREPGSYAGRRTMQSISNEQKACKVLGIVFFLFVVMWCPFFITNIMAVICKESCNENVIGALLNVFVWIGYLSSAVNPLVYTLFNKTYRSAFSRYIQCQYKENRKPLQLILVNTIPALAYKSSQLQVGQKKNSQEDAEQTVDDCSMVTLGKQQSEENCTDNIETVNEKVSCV

## COc1cc2c(cc1Cl)C(C)(C)c1ccn(C[C@H](C)N)c1-2 [Example 26, (S)-2-(6-chloro-7-methoxy-4,4-dimethyl-1,4-dihydro-indeno[1,2-b]pyrrol-1-yl)-1-methyl-ethylamine fumarate (1:1)]
[1]; [7]
  Ki: 26.3 nM
[2]
  Ki: 67.6 nM
[3]
  Ki: 5620 nM

## COc1ccc2ccc3ccn(C[C@H](C)N)c3c2c1 [Example 7, (S)-2-(8-methoxy-1H-benz[g]indol-1-yl)-1-methyl-ethylamine fumarate (1:0.5)]
[4]
  IC50: 1200 nM
[5]
  IC50: 24 nM
[6]
  IC50: 2160 nM

## COc1cccc2c1-c1c(ccn1CC(C)N)C2 (racemic) [Example 67, (RS)-2-(8-methoxy-1,4-dihydro-indeno[1,2-b]pyrrol-1-yl)-1-methyl-ethylamine fumarate (1:0.5)]
[4]
  IC50: 1070 nM
[5]
  IC50: 146 nM
[6]
  IC50: 1750 nM

## C[C@H](N)Cn1ccc2c1-c1cc(-c3ccccc3)ccc1C2 [Example 14, (S)-2-(7-phenyl-1,4-dihydro-indeno[1,2-b]pyrrol-1-yl)-1-methyl-ethylamine fumarate (1:0.5)]
[1]
  Ki: 16.6 nM
[2]
  Ki: 24 nM
[3]; human 5HT1A, [3H]-5-HT (1 nM), 3T3 cell membranes, Method II, read-out: pki, test method a (converted)
  Ki: 10000 nM

## Clc1cccc(N2CCNCC2)c1 [mCPP, reference compound]
[4]
  IC50: 319 nM
[5]; [8]
  IC50: 53 nM
[6]
  IC50: 227 nM

## COc1ccc2c(c1)Cc1ccn(CC(C)N)c1-2 (racemic) [Example 55, (RS)-2-(6-methoxy-1,4-dihydro-indeno[1,2-b]pyrrol-1-yl)-1-methyl-ethylamine fumarate (1:0.5)]
[4]
  IC50: 8350 nM
[5]
  IC50: 371 nM
[6]
  IC50: 1260 nM

## CC(N)Cn1ccc2c1-c1cccc(Cl)c1C2 (racemic) [Example 37, (RS)-2-(5-chloro-1,4-dihydro-indeno[1,2-b]pyrrol-1-yl)-1-methyl-ethylaminefumarate (1:0.5)]
[1]; [7]
  Ki: 35.5 nM
[2]
  Ki: 309 nM
[3]
  Ki: 4790 nM

## Cc1nc2sccn2c(=O)c1CCN1CCC(=C(c2ccc(F)cc2)c2ccc(F)cc2)CC1 [Ritanserine, reference compound]
[5]
  IC50: 37 nM

## CC(N)Cn1ccc2c1-c1ccccc1SC2 (racemic) [Example 64]
[4]
  IC50: 773 nM
[5]; [8]
  IC50: 85.4 nM
[6]
  IC50: 384 nM

## COc1ccc2c(c1)-c1c(ccn1C[C@@H](C)N)CC2 [Example 30, (R)-2-(4,5-dihydro-8-methoxy-1H-benz[g]indol-1-yl)-1-methyl-ethylamine fumarate (1:1)]
[4]
  IC50: 479 nM
[5]
  IC50: 58.1 nM
[6]
  IC50: 298 nM

## COc1ccc2c(c1)-c1c(ccn1C[C@@H](C)N)C2 [Example 28, (R)-2-(7-methoxy-1,4-dihydro-indeno[1,2-b]pyrrol-1-yl)-1-methyl-ethylaminefumarate (1:0.5)]
[4]
  IC50: 1630 nM
[5]
  IC50: 78.7 nM
[6]
  IC50: 1070 nM

## COc1ccc2c(c1)-c1c(ccn1CCN)C2 [Example 23, 2-(7-methoxy-1,4-dihydro-indeno[1,2-b]pyrrol-1-yl)-ethylamine fumarate (1:1)]
[4]
  IC50: 3340 nM
[5]
  IC50: 45.2 nM
[6]
  IC50: 347 nM

## COc1ccc2ccc3ccn(CCN)c3c2c1 [Example 32, 2-(8-methoxy-1H-benz[g]indol-1-yl)-ethylamine fumarate (1:1)]
[4]
  IC50: 1670 nM
[5]
  IC50: 18 nM
[6]
  IC50: 139 nM

## CN1C[C@H](CNC(=O)OCc2ccccc2)C[C@@H]2c3cccc4c3c(cn4C)C[C@H]21 [Metergoline, reference compound]
[5]
  IC50: 5.5 nM

## O=c1ccc2[nH]cc(C3=CCNCC3)c2[nH]1 [CP 93129, reference compound]
[4]
  IC50: 29200 nM
[6]
  IC50: 1620 nM

## COc1ccc2[nH]cc(C3=CCNCC3)c2c1 [RU 24969, reference compound]
[6]
  IC50: 8 nM

## COc1ccc2c(c1)-c1c(ccn1C(C)(C)N)CO2 [Example 54, (RS)1-(8-methoxy-1,4-dihydro[1]benzopyrano[4,3b]pyrrol1-yl)-1-methyl-ethylamine]
[4]; 5HT2A, 3H-ketanserine, Method I, read-out: IC50, test method c
  IC50: 2590 nM
[5]; [8]
  IC50: 116 nM
[6]
  IC50: 825 nM

## CC(N)Cn1ccc2c1-c1ccccc1OC2 (racemic) [Example 34, (RS)-1-(1,4-dihydro-[1]benzopyrano-[4,3-b]pyrrol-1-yl)-1-methyl-ethylaminefumarate (1:0.5)]
[4]
  IC50: 2640 nM
[5]; [8]
  IC50: 107 nM
[6]
  IC50: 1620 nM

## COc1ccc2c(c1)-c1c(ccn1CCN)CC2 [Example 59, 2-(4,5-dihydro-8-methoxy-1H-benz[g]indol-1-yl)-ethylamine fumarate (1:1)]
[4]
  IC50: 1510 nM
[5]
  IC50: 23.8 nM
[6]
  IC50: 97 nM

## COc1ccc2ccc3ccn(C[C@@H](C)N)c3c2c1 [Example 31, (R)-2-(8-methoxy-1H-benz[g]indol-1-yl)-1-methyl-ethylamine fumarate (1:0.5)]
[4]
  IC50: 874 nM
[5]
  IC50: 28.1 nM
[6]
  IC50: 337 nM

## CC(N)Cn1ccc2c1-c1ccc(Cl)cc1C2 (racemic) [Example 53, (RS)-2-(6-chloro-1,4-dihydro-indeno[1,2-b]pyrrol-1-yl)-1-methyl-ethylaminefumarate (1:0.5)]
[4]
  IC50: 11300 nM
[5]
  IC50: 308 nM
[6]
  IC50: 1100 nM

## Cc1nc2ccccn2c(=O)c1CCN1CCC(C(=O)c2ccc(F)cc2)CC1 [Pirenperone, reference compound]
[4]
  IC50: 2.9 nM
[5]
  IC50: 37 nM
[6]
  IC50: 2880 nM

## CC(N)Cn1ccc2c1-c1cc(Cl)ccc1C2 (racemic) [Example 21, (RS)-2-(7-chloro-1,4-dihydro-indeno[1,2-b]pyrrol-1-yl)-1-methyl-ethylaminefumarate (1:0.5)]
[4]
  IC50: 2540 nM
[5]
  IC50: 56.6 nM
[6]
  IC50: 1350 nM

## COc1ccccc1N1CCN(CCCCN2C(=O)c3ccccc3C2=O)CC1 [NAN-190, reference compound]
[4]
  IC50: 581 nM
[5]
  IC50: 1800 nM
[6]
  IC50: 0.56 nM

## CC(N)Cn1ccc2c1-c1ccccc1C2c1ccccc1 (racemic) [Example 69, (2RS/4RS)-2-(4-phenyl-1,4-dihydro-indeno[1,2-b]pyrrol-1-yl)-1-methyl-ethylamine fumarate (1:0.86)]
[4]
  IC50: 854 nM
[5]
  IC50: 143 nM
[6]
  IC50: 3460 nM

## COc1ccc2c(c1)-c1c(ccn1CC(C)N)C2 (racemic) [Example 22, (RS)-2-(7-methoxy-1,4-dihydro-indeno[1,2-b]pyrrol-1-yl)-1-methyl-ethylamine fumarate (1:0.5)]
[4]
  IC50: 1400 nM
[5]
  IC50: 30.4 nM
[6]
  IC50: 1590 nM
